Consider eight substances from US11214803B2, “Modulators of YAP1 expression” (Ionis Pharmaceuticals, Inc., priority 2019, dated 2022).

Series [1] in a line: Tolerability in Balb/c mice, body and organ weights (Example 10). The format is in vivo. The note with it: 50 mg/kg subcutaneously twice a week for four weeks, end of study. The method, then:
(§1) Groups of male Balb/c mice at 4-6 weeks of age (obtained from Taconic) were injected subcutaneously twice a week for four weeks (for a total of 8 treatments) with 50 mg/kg of modified oligonucleotides. One group of male Balb/c mice was injected with PBS. Mice were euthanized on day 26 post start of treatment (24 hours following the final administration).
(§2) Body weights of Balb/c mice were measured at the end of the study, and the average body weight for each group is presented in the table below. Modified oligonucleotides that caused any changes in organ weights outside the expected range for modified oligonucleotides were excluded from further studies.

Series [2] in a line: Tolerability in Balb/c mice, plasma chemistry markers (Example 10). The format is in vivo. The note with it: male Balb/c mice, 50 mg/kg subcutaneously twice a week for four weeks, day 26. The method, then:
(§3) Balb/c mice were treated with modified oligonucleotides selected from studies described above and evaluated for changes in the levels of various plasma chemistry markers.
as §1

For the next series, the system named is Yap1 mRNA. Briefly: Dose-dependent inhibition of human Yap1 in A-431 cells (Example 6, 5,000 cells per well, RTS4814). The format is cell-based. The note with it: A-431 cells; for IC50: Yap1 mRNA, linear regression on a log/linear plot; for % UTC 148 nM / % UTC 444 nM / % UTC 1333 nM / % UTC 4000 nM: free uptake, approximately 48 hours, RTS4814. The method in brief:
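A-431 cells (5,000/well) took up oligonucleotides by free uptake at various doses for about 48 h. Yap1 mRNA was measured by RT-PCR (RTS4814), normalised to RIBOGREEN total RNA and expressed as % untreated control; IC50 by linear regression on a log/linear plot.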

The nature of series [3]: Tolerability in Balb/c mice, plasma chemistry markers (Example 11). The format is in vivo. The note with it: 50 mg/kg subcutaneously twice a week for four weeks. The method, then: as §3, §1
A short description of series [4]: Tolerability in Balb/c mice, body and organ weights (Example 11). The format is in vivo. The note with it: 50 mg/kg subcutaneously twice a week for four weeks, end of study. The method, then:
as §1, §2

Strand notation (5' to 3'): a small letter for the sugar, then the base; units joined by * are phosphorothioate-linked, units joined directly phosphodiester-linked; [ ] holds rarer units or linkages, { } end groups; capitals alone tell only the bases. k = constrained ethyl (cEt); [5mC] = 5-methylcytosine; d = 2'-deoxy (DNA) A value given as a limit tells only on which side of the number the result lay.

Regarding “715557 (kG*kG*kA*dA*dG*dT*dT*dA*dT*dT*d[5mC]*dA*dG*k[5mC]*kA*kG; antisense) [compound 715557]”, in series [1], the Kidney weight worked out at 0.31 g, the Liver weight came out at 1.96 g, the Spleen weight is given as 0.12 g and the body weight was determined as 21 g. Also, in series [2], the “ALT (U/L)” value is given as 1755 U/L, the “AST (U/L)” value is 2377 U/L and the “TBIL” value amounted to 0.28 mg/dL.

Consider “715558 (k[5mC]*kA*kG*dG*dA*dA*dG*dT*dT*dA*dT*dT*d[5mC]*kA*kG*k[5mC]; antisense) [compound 715558]”, for which, in series [1], the Kidney weight is 0.38 g, the Liver weight was found to be 1.33 g, the Spleen weight is on record as 0.12 g and the body weight came to 22 g. Moreover, in series [2], the “ALT (U/L)” value was 65 U/L, the “AST (U/L)” value came out at 91 U/L and the “TBIL” value amounted to 0.16 mg/dL. In the series on Yap1 mRNA (Table 54), the 50% inhibitory concentration (IC50) is more than 4 µM, the “% UTC 148 nM” value was found to be 94 % UTC, the “% UTC 444 nM” value is recorded as 112 % UTC and the “% UTC 1333 nM” value is recorded as 80 % UTC. Also, the “% UTC 4000 nM” value in the series on Yap1 mRNA (Table 54) is on record as 66 % UTC.

In series [1], “715480 (kG*kG*kA*dA*dA*d[5mC]*d[5mC]*dA*dT*dT*dA*dT*dT*kA*k[5mC]*kT; antisense) [compound 715480]” returned a Kidney weight of 0.34 g, a Liver weight of 1.64 g, a Spleen weight of 0.12 g and a body weight of 22 g. For the same substance, in series [2], the “ALT (U/L)” value was 791 U/L, the “AST (U/L)” value came out at 439 U/L and the “TBIL” value was determined as 0.15 mg/dL. Also, in the series with Yap1 mRNA (Table 53), the IC50 is more than 4 µM, the “% UTC 148 nM” value amounted to 91 % UTC, the “% UTC 444 nM” value is 79 % UTC and the “% UTC 1333 nM” value is given as 67 % UTC. Besides, the “% UTC 4000 nM” value with Yap1 mRNA (Table 53) is on record as 59 % UTC.

In series [1], “715609 (kT*kG*kT*dG*dT*dA*dG*dG*d[5mC]*dT*dG*dA*d[5mC]*kT*kT*kA; antisense) [compound 715609]” had a Kidney weight of 0.33 g, a Liver weight of 2.64 g, a Spleen weight of 0.10 g and a body weight of 21 g. In series [2], the “ALT (U/L)” value turned out to be 1120 U/L, the “AST (U/L)” value is 2941 U/L and the “TBIL” value is 0.67 mg/dL.

For “715593 (kA*kT*kT*dT*d[5mC]*dT*dT*dT*dG*dG*d[5mC]*dA*dG*kA*kG*kA; antisense) [compound 715593]”, in series [1], the Kidney weight came to 0.30 g, the Liver weight came out at 1.12 g, the Spleen weight is reported as 0.13 g and the body weight is given as 19 g. In series [2], the “ALT (U/L)” value stood at 628 U/L, the “AST (U/L)” value came out at 610 U/L and the “TBIL” value came out at 0.11 mg/dL.

“715582 (kG*kT*k[5mC]*dA*dA*dG*d[5mC]*d[5mC]*dT*dG*dT*d[5mC]*dT*kG*kG*kA; antisense) [compound 715582]”: in series [1], the Kidney weight came to 0.38 g, the Liver weight was determined as 1.46 g, the Spleen weight is on record as 0.16 g and the body weight is 22 g. In series [2], the “ALT (U/L)” value was 2460 U/L, the “AST (U/L)” value is given as 2320 U/L and the “TBIL” value was determined as 2.09 mg/dL. In the series on Yap1 mRNA (Table 54), the IC50 is more than 4 µM, the “% UTC 148 nM” value was 98 % UTC, the “% UTC 444 nM” value was found to be 63 % UTC and the “% UTC 1333 nM” value is 93 % UTC. The “% UTC 4000 nM” value with Yap1 mRNA (Table 54) is reported as 70 % UTC.

With “716502 (antisense k[5mC]*kA*k[5mC]*dA*dG*dT*dG*dA*dT*dT*dG*d[5mC]*dA*kT*kT*kT) [compound 716502]”, in series [3], the ALT is recorded as 2920 U/L, the AST was determined as 1329 U/L, the BUN was found to be 17 mg/dL and the TBIL is recorded as 0.27 mg/dL. Moreover, in the series with Yap1 mRNA (Table 54), the IC50 is 0.8 µM, the “% UTC 148 nM” value is given as 73 % UTC, the “% UTC 444 nM” value is reported as 57 % UTC and the “% UTC 1333 nM” value was 45 % UTC. Besides, the “% UTC 4000 nM” value in the series with Yap1 mRNA (Table 54) worked out at 30 % UTC. In series [4], this substance gave a Kidney weight of 0.42 g, a Liver weight of 2.18 g, a Spleen weight of 0.10 g and a body weight of 23 g.

Turning to “715484 (kT*kA*k[5mC]*dT*d[5mC]*dT*dT*dT*dG*dG*dA*dA*dA*k[5mC]*k[5mC]*kA; antisense) [compound 715484]”, in series [1], the Kidney weight is 0.37 g, the Liver weight is on record as 1.47 g, the Spleen weight is listed as 0.13 g and the body weight is on record as 22 g. In series [2], the “ALT (U/L)” value is on record as 116 U/L, the “AST (U/L)” value turned out to be 110 U/L and the “TBIL” value was found to be 0.15 mg/dL.
